For one experiment, the target named is T1, βER (Homo sapiens, UniProt Q92731).
T1 construct: expressed in transfected cells; host or cells: 293 cells (Human Embryonic Kidney, ATCC CRL-1573)
Description: Cell-based assay for ER transcriptional activity (ERE β-gal reporter), βER-transfected 293 cells. To be noted: for pEC50 / ERE β-ER Max: 293 cells transfected with βER and ERE reporter; for ERE β-ER Max: maximal response, unit assumed; for ERE Selectivity: ratio α-ER EC50 / β-ER EC50. On the procedure:
(§1) ERs are ligand-dependent transcription factors that bind the promoter regions of genes at a consensus DNA sequence called the estrogen responsive element (ERE). The ER agonist or antagonist activity of a drug was determined by measuring the amount of reporter enzyme activity expressed from a plasmid under the control of an estrogen-responsive element when cells transiently transfected with ER and the reporter plasmid were exposed to drug. These experiments were conducted according to the following methods.
(§2) Estrogen Receptors alpha (αER, Gen Bank accession #M12674), and beta (βER, Gen Bank #X99101 were cloned into the expression vector pSG5 (Stratagene). A trimer of the vitellogenin-gene estrogen response element (vitERE) was synthesized as an oligonucleotide and attached to a beta-globin basal promoter in a construct named pERE3 gal. This response element and promoter were removed from pERE3 gal by digestion with the endonucleases SpeI (filled with Klenow fragment) and HindIII. This blunt/Hind III fragment was cloned into the β-galactosidase (β-gal) enhancer reporter plasmid (pBGALenh, Stratagene). αER and βER plasmids were purified using a the Endo Free Maxi Kit (Qiagen), and the DNA concentration and purity (A260/280 ratio) were determined spectrophotometrically (Pharmacia). Only DNA with A260/280 ratio of 1.8 and a concentration of >1 ug/uL was used for transfections.
(§3) All Transfections are performed in 293 cells (Human Embryonic Kidney cells ATCC #CRL-1573). Cells are grown in DMEM supplemented with 10% FBS, glutamine, sodium pyruvate and penicilin/streptomycin. Cells are grown to 70% confluency and split 1:4.
(§4) • 1. 293 cells are split the night before onto collagen I-coated 150 mm tissue-culture plates (Biocoat, Becton Dickinson #354551) at a density of 60-70% in DMEM Mediatech 17-205-CV) 10% charcoal-stripped FBS (biocell #6201-31). Approximately 1×10^7 cells/plate will yield 70% confluency. • 2. The next morning, 1 hour prior to transfection, the media is changed to fresh DMEM 10% FBS stripped and supplements. • 3. Transfections are performed using the Profection Kit (Promega #E1200). This kit is based on the calcium-phosphate-mediated transfection technique. Reagents are added in sterile polystyrene tubes in the following order:
(§5) Solution A • 15 μg αER or βER • 45 μg Reporter (pBGALenh or ERE3) • 1.5 mL Sterile Water • 186 μL CaCl2 • *Mix gently
(§6) Solution B • 1.5 mL 2× Hank's Buffered Salt Solution • 4. Using a vortex set on low, add solution A to solution B dropwise. The resulting solution should become milky in color. It is important to achieve thorough mixing. The solution is allowed to settle for 30 minutes, then vortexed before adding the solution to cells. • 5. Add the mixture to 150 mm plates dropwise. Mix well by rocking plates back and forth and side to side gently. After an hour, a very fine precipitate should be seen floating on and above cells under 20× magnification. If this precipitate is not observed, the transfection will not be effective. Incubate the cells for 12 hours. Receptor Stimulation: • 1. The day after transfection, cells are washed 2× with calcium- and magnesium-free Mg free PBS containing 1 mM EGTA (pH 7.6). Cells are trypsinized for 2 min with 3 mL of trypsin-EDTA. Trypsin is neutralized with DMEM 10% FCS. Cells are pelleted at 1000×g for 5 min. The cell pellet is then resuspended in 5 mL DMEM plus 2% phenol-red-free FCS supplemented with glutamine, pyruvate, and Penn/Strep. • 2. 50 μl of the resulting cell suspension is plated into each well of 96-well tissue culture dishes (Biocoat B&D #354407) using a multi-channel pipettor. The dishes have been previously loaded with 50 μL of DMSO-solubilized test compounds at twice the test concentration in DMEM. Data reported are either n=4 wells (single poke) and n=2 wells (9-point concentration-response curves). • 3. Cells are incubated overnight at 37° C. in the selected compounds. Reporter Assay: • 1. […]

A further experiment deals with T2, αER (Homo sapiens, UniProt P03372).
T2 construct: expressed in transfected cells; host or cells: 293 cells (Human Embryonic Kidney, ATCC CRL-1573)
T2 sequence (P03372 1-595): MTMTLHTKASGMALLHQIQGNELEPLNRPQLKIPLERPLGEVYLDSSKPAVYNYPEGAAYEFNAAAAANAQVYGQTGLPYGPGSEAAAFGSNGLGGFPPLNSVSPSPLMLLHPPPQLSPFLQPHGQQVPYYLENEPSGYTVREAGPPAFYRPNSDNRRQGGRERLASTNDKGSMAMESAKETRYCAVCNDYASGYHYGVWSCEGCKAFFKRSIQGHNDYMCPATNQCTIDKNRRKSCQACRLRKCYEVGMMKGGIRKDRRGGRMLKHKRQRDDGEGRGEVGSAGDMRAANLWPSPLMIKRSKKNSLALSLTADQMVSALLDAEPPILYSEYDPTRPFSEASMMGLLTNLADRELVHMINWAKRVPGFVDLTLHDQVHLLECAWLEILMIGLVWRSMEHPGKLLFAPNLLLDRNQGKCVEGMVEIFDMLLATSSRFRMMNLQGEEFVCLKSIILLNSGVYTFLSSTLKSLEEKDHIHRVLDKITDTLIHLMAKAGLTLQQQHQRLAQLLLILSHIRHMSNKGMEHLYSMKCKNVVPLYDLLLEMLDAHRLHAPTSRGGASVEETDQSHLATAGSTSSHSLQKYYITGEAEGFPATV
Description: Cell-based assay for ER transcriptional activity (ERE β-gal reporter), αER-transfected 293 cells. To be noted: 293 cells transfected with αER and ERE reporter; for ERE α-ER Max: maximal response, unit assumed; for pEC50: read-out: ERE α-ER EC50. On the procedure: as §1, §2, §3, §4, §5, §6

In another experiment the target is T3, human recombinant ERβ (Homo sapiens, UniProt Q92731).
T3 construct: purchased PanVera (Madison, Wis.)
Description: Fluorescence polarization estrogen receptor (ERFP) binding assay, ERβ. To be noted: for pKi: competition with Fluormone ES2, IC50 converted to Ki by Kenakin formula, read-out: FP β-ER Ki; for FP Selectivity: ratio α-ER Ki / β-ER Ki. The protocol: (§7) A homogeneous mix-and-measure estrogen receptor (ER) binding assay which utilizes fluorescence polarization (FP) technology is used to identify compounds with affinity for the estrogen receptor. Purchased from PanVera (Madison, Wis.), assay reagents include purified human recombinant ERα, human recombinant ERβ, ES2 screening buffer (100 mM potassium phosphate, pH 7.4, 100 μg/mL bovine gamma globulin), and Fluormone™ ES2.
(§8) For competition binding experiments, dilutions of test compounds are prepared at 2× the final assay concentration in 0.2% DMSO in ES2 Screening buffer on TECAN Genosys, and 25 μL compound/well is dispensed into black Costar ½ volume 96-well plates. Dependent upon a lot specific Kd determination, 10-40 nM ERα or 10-40 nM ERβ and 1 nM Fluormone ES2 are then added to these plates in a final assay volume of 50 μL/well. Plates are gently shaken for at least 5 minutes to mix and incubated for at least 1 hr 45 minutes to achieve equilibrium. (Reaction mixtures are stable for up to 5 hours). After centrifugation to remove air bubbles, plates are read on an LJL Analyst or Acquest equipped with Criterion software at the following settings: Fluorescence Polarization Mode; Static Polarizer on Excitation Side; Dynamic Polarizer on Emission Side; Excitation λ=485×/−5 10 nm; Emission λ=520+/−12.5 nm.
(§9) Polarized fluorescence intensity values are collected and subsequently converted electronically to millipolarization (mp) values. Following data reduction and normalization with Excel and/or Prism software, % Ctrl values at the various test concentrations are used to obtain IC50 values via non-linear regression analysis of a four-parameter logistic equation.
(§10) Because ligand depletion is a consideration in this assay (˜40-60% input ES2 is bound in the assay), IC50 values are converted to Ki values through application of the Kenakin formula, as outlined in the reference below, rather than via the more routinely-used Cheng-Prusoff formula.

The target of a further experiment is T4, human recombinant ERα (Homo sapiens, UniProt P03372).
T4 construct: purchased PanVera (Madison, Wis.)
T4 sequence (P03372 1-595): T2 sequence (P03372 1-595)
Description: Fluorescence polarization estrogen receptor (ERFP) binding assay, ERα. To be noted: competition with Fluormone ES2; IC50 converted to Ki by Kenakin formula; read-out: FP α-ER Ki. The protocol:
as §7, §8, §9, §10
In general terms: Polarisation of emitted light reports the rotation of a fluorescent probe.

As a reminder, the pEC50 is the EC50 on a negative log10 scale, so that one unit is a factor of ten. A word on the pKi: it is the Ki on a negative log10 scale, so that one unit is a factor of ten.

The structures appear in SMILES notation. pEC50, pKi: −log10 of the molar value.

T1 sequence (Q92731 54-530 limits assumed): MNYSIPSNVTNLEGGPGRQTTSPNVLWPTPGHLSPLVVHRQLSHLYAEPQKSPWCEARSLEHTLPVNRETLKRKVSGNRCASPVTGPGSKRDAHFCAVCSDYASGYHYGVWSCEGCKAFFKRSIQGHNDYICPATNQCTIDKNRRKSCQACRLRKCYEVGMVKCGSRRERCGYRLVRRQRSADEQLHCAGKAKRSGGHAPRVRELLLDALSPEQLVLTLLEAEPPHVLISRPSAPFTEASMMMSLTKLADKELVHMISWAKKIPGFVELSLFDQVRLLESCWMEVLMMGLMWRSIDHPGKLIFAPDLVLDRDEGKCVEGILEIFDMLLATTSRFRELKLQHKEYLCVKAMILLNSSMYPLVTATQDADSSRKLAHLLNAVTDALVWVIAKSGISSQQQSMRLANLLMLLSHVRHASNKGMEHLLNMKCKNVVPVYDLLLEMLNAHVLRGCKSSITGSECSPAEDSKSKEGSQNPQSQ
T3 sequence (Q92731 whole entry): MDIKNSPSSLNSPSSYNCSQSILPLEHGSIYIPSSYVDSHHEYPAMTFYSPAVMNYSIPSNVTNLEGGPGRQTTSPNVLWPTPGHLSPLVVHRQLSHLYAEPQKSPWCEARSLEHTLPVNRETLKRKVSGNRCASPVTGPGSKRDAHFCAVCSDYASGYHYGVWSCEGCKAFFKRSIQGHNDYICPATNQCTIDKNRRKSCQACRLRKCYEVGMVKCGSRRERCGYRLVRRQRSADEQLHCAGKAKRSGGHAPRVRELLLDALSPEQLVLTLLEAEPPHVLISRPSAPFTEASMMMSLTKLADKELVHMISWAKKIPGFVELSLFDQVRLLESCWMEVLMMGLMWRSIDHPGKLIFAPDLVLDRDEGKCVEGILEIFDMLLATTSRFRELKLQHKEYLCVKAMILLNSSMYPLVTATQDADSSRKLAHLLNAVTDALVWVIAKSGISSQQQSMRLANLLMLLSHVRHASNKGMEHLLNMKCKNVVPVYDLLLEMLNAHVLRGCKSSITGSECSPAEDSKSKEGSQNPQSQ

In the case of `Cc1ccc(N2CCc3cc(O)ccc3C2c2ccoc2)cc1O` (stereo not drawn) [Example 21, 1-Furan-3-yl-2-(3-hydroxy-4-methyl-phenyl)-1,2,3,4-tetrahydro-isoquinolin-6-ol], on βER, the pEC50 was 9.15, the ERE β-ER Max came to 106% and the “ERE Selectivity” value is recorded as 1.1. On αER, the ERE α-ER Max was found to be 77% and the pEC50 was 9.10. Besides, on human recombinant ERβ, the negative-log Ki (pKi) was 8.42 and the “FP Selectivity” value was determined as 6.0. The pKi on human recombinant ERα was 7.66.

As to `Oc1ccc(N2Cc3ccc(O)cc3C2)cc1` [Example 25, 5-Hydroxy-2-(4-hydroxyphenyl)isoindoline], at βER, the pEC50 is 6.79, the ERE β-ER Max is 77% and the “ERE Selectivity” value came to 1.2. Besides, at αER, the ERE α-ER Max was determined as 60% and the negative-log EC50 (pEC50) was 6.72. Also, on human recombinant ERβ, the pKi was 7.26 and the “FP Selectivity” value is given as 3.5. The pKi on human recombinant ERα is 6.72.

Consider `CCC1c2cc(O)ccc2CN1c1ccc(O)cc1` (stereo not drawn) [Example 26, 1-Ethyl-6-hydroxy-2-(4-hydroxyphenyl)isoindoline], for which, at βER, the negative-log EC50 (pEC50) was 7.10, the ERE β-ER Max amounted to 85% and the “ERE Selectivity” value turned out to be 0.9. Moreover, on αER, the ERE α-ER Max was found to be 102% and the pEC50 was 7.14. At human recombinant ERβ, the negative-log Ki (pKi) is 6.80 and the “FP Selectivity” value was determined as 1.3. Further, the pKi on human recombinant ERα is 6.70.
